As a reminder, the CC50 is the concentration that lowers cell viability or growth by half. Usually IC50 stands for the concentration that gives 50% inhibition.

Like-named read-outs stand apart in the source and are kept apart here. Some results are limits rather than exact numbers.

From publication PMC6405172, “In vitro activity and mode of action of phenolic compounds on Leishmania donovani” (PLoS Neglected Tropical Diseases, 2019) come the findings set out here.

What all share (assay type): cell-based
Data set [1] can be described thus: Cytotoxicity of compounds on mammalian cells (MTT). The settings on record: mouse, Raw 264.7 cells, read-out: Macrophages CC50 (μM) ±SD. Here is the method: Raw 264.7 cells were seeded into 96-well plates at (1 x 10^6 cells) in DMEM supplemented with 10% FBS, 100 μg/mL streptomycin, 100 u/mL penicillin-G, 2g/L NaHCO3 and incubated at 37°C for 24 hours in 5% CO2. The cells were treated with 0–50 μg/mL concentrations of the phenolic compounds for 48 hours at 37°C in 5% CO2. Deferoxamine and amphotericin B at 0–50 μg/mL concentrations were used as positive controls. Cell viability was estimated by measuring the mitochondria oxidative activity by MTT assay and absorbance was read at 570 nm using Thermo Scientific Varioskan LUX. Selectivity index (SI) was calculated as the ratio of the CC50 to IC50 values.

Data set [2] concerns Leishmania donovani intracellular amastigotes. Nature of the data set: Intracellular amastigote assay in infected RAW 264.7 cells. The settings on record: for IC50: Leishmania donovani; for Selectivity Index (CC50/IC50), amastigotes: CC50 Raw 264.7 / IC50 intracellular amastigotes. Here is the method:
Amastigote cultures were prepared as reported by Jain and colleagues. Briefly, Raw 264.7 cells (4 x 10^7 cells) were seeded in 4 chamber slides and 1 x 10^7 cells in 96 well plates and incubated for 24 hours at 37°C in 5% CO2. The RAW 264.7 cells were infected with metacyclic promastigotes (1 x 10^8 cells) at an infection ratio of 1:10 macrophage: parasites and incubated for 24 hours at 37°C in 5% CO2. The overlying medium was removed, and the monolayer intracellular amastigotes were carefully washed four times with serum free M199 to remove free parasites. Freshly prepared M199 containing 10% FBS and the test compounds at concentrations ranging from 0–50 μg/mL were added to the infected cells and incubated for 48 hours at 37°C in 5% CO2. Triplicate incubations were performed in all the experiments. The chamber slides were washed thrice after incubation with M199 without FBS. The slides were then fixed in absolute methanol for 30 sec, rehydrated in 1x PBS for 5 min and stained with DAPI for 15 min. The slides were viewed by fluorescence microscopy and the number of infected macrophages counted using ImageJ Software to determine the infectivity index and IC50 values for amastigotes.
The infected RAW 264.7 cells in the 96 wells microtiter plates were also incubated for 48 hours and washed thrice as above. Sodium dodecyl sulfate (SDS) of concentration 0.05% was added to the wells for 30 sec for controlled lysis with M199 and 10% FBS. After the 30 sec, M199 with 10% FBS was added and the plates incubated at 25°C for 72 hours for the differentiation of the rescued amastigotes to promastigotes. Following incubation, the amastigotes were subjected to MTT assay and the absorbance obtained were used to estimate IC50 values of the compounds against the amastigote forms.

In data set [3] the test system is Leishmania donovani promastigotes. Nature of the data set: Promastigote viability assay (MTT). The settings on record: for Selectivity Index (CC50/IC50), promastigotes: CC50 Raw 264.7 / IC50 promastigotes; for IC50: Leishmania donovani, read-out: Promastigotes IC50 (μM) ± SD. As for the experimental part:
The MTT assay was done as previously described. Briefly, promastigotes (2 x 10^5 cells) were cultured in freshly prepared M-199 medium supplemented with 10% heat inactivated fetal bovine serum in the presence or absence of varying concentrations of the phenolic compounds (0–50 μg/mL) for 72 hours at 25°C. Amphotericin B (0–50 μg/mL) and deferoxamine (0–50 μg/mL) were used as positive controls. After incubation, 5 mg/mL MTT solution was added to the promastigotes in each well and incubated for 3 hours at 25°C. In this assay, the yellow tetrazolium MTT dye was reduced to insoluble formazan crystals (purple color) in living cells using NADH as their reducing agent. Formazan crystals formed after incubation were solubilized with acidified isopropanol and incubated at 37°C for 30 min. The change in color from yellow to purple was read at an absorbance of 570 nm using Thermo Scientific Varioskan LUX. The cell viability and IC50 were determined from the concentration response curve generated using GraphPad Prism 6.0 Software.

[4] abbreviates: RAW264.7, intracellular amastigotes in RAW 264.7 cells, 48 hours, read-out: Amastigotes IC50 (μM) ± SD.

In the case of `O=C(O)C=Cc1ccc(O)cc1` [p-Coumaric acid], the CC50 at 48 h in data set [1] was found to be 322.6 ± 0.15 µM. The IC50 is over 100 µM in data set [2] (setting [4]) and 76.09 ± 0.01 µM in data set [3] (MTT, 72 hours at 25°C). Besides, the “Selectivity Index (CC50/IC50), promastigotes” value in data set [3] worked out at 4.24.

With `COc1cc(/C=C/C(=O)O)ccc1O` [Ferulic acid, ferulic acid], the CC50 at 48 h in data set [1] came to 346.7 ± 0.01 µM. Besides, the “Selectivity Index (CC50/IC50), amastigotes” value in data set [2] stood at 6.30. Moreover, the IC50 in data set [2] (RAW264.7, 48 h, intracellular amastigotes in RAW 264.7 cells, 48 hours, read-out: Amastigotes IC50 (μM) ± SD) was determined as 54.98 ± 0.01 µM; in data set [3] (MTT, 72 hours at 25°C), 69 ± 0.01 µM. Besides, the “Selectivity Index (CC50/IC50), promastigotes” value in data set [3] was 5.02.

For `O=C(O)c1cc(O)c(O)c(O)c1` [Gallic acid, gallic acid], the CC50 at 48 h in data set [1] was 33.76 ± 0.02 µM. Further, the “Selectivity Index (CC50/IC50), amastigotes” value in data set [2] is 0.60. The IC50 turned out to be 54.65 ± 0.25 µM in data set [2] (setting [4]) and 198 ± 0.03 µM in data set [3] (MTT, 72 hours at 25°C). Moreover, in data set [3], the “Selectivity Index (CC50/IC50), promastigotes” value was 0.17.

Consider `COc1cc(C(=O)O)ccc1O` [Vanillic acid, vanillic acid], for which the CC50 at 48 h in data set [1] worked out at 13.15 ± 0.01 µM. Also, in data set [2], the “Selectivity Index (CC50/IC50), amastigotes” value turned out to be 0.19. Further, the IC50 in data set [2] (setting [4]) worked out at 69.97 ± 0.02 µM; in data set [3] (MTT, 72 hours at 25°C), 68.97 ± 0.02 µM. Further, the “Selectivity Index (CC50/IC50), promastigotes” value in data set [3] was determined as 0.19.

For `O=C(O)c1ccc(O)c(O)c1` [Protocatechuic acid, protocatechuic acid], the CC50 at 48 h in data set [1] is 511.9 ± 0.01 µM. Besides, the IC50 in data set [2] (RAW264.7, 48 h, read-out: Amastigotes IC50 (μM) ± SD, intracellular amastigotes in RAW 264.7 cells, 48 hours) was over 100 µM; in data set [3] (72 h) it was 72.54 ± 0.01 µM. The “Selectivity Index (CC50/IC50), promastigotes” value in data set [3] worked out at 7.05.

As to `O=C(/C=C/c1ccc(O)c(O)c1)O[C@@H]1C[C@](O)(C(=O)O)C[C@@H](O)[C@H]1O` [Chlorogenic acid, chlorogenic acid], the CC50 at 48 h in data set [1] (Raw 264.7 macrophage cells) came out at 59.9 ± 0.02 µM. Also, in data set [2], the “Selectivity Index (CC50/IC50), amastigotes” value is 1.11. Further, the IC50 was 53.75 ± 0.4 µM in data set [2] (setting [4]) and 53.92 ± 0.03 µM in data set [3] (MTT, 72 hours at 25°C). Also, the “Selectivity Index (CC50/IC50), promastigotes” value in data set [3] was found to be 1.11.

Take `O=C(O)c1ccccc1O` [Salicylic acid, salicylic acid]: in data set [1] (Raw 264.7 macrophage cells), the CC50 at 48 h came to 62.99 ± 0.01 µM. Further, the “Selectivity Index (CC50/IC50), amastigotes” value in data set [2] worked out at 0.69. The IC50 came out at 90.65 ± 0.04 µM in data set [2] (setting [4]) and 75.4 ± 0.02 µM in data set [3] (MTT, 72 hours at 25°C). Also, the “Selectivity Index (CC50/IC50), promastigotes” value in data set [3] came out at 0.83.

For the compound `O=C(O)/C=C/c1ccc(O)c(O)c1` [Caffeic acid, caffeic acid], the CC50 at 48 h in data set [1] (Raw 264.7 macrophage cells) amounted to 129.92 ± 0.01 µM. The “Selectivity Index (CC50/IC50), amastigotes” value in data set [2] was determined as 2.29. Besides, the IC50 in data set [2] (setting [4]) is 56.77 ± 0.01 µM; in data set [3] (MTT, 72 hours at 25°C), 58.77 ± 0.01 µM. For the same compound, the “Selectivity Index (CC50/IC50), promastigotes” value in data set [3] amounted to 2.21.
